Measurements as given in PubChem BioAssay (NCI).
Where “and” joins values, the source holds several entries; their conditions need not be identical. Equal entries are not always repeated.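 How tested: cells in 96-well plates exposed to compound for 48 hours at five concentrations. GI50 = concentration required for 50% inhibition of growth. TGI: total growth inhibition.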

What follows are molecules tested on SF-295 CNS (assay: NCI tumour cell line growth inhibition, 48 h).

Structure (SMILES) | TGI | GI50 [µM]
O=C1NC(=O)c2ccc([N+](=O)[O-])c3cccc1c23 | 32.8 µM | 
C[N+](C)(C)CC1CCCC(C[N+](C)(C)C)C1=O (stereo unspecified) | 45.6 µM | 
CN(C)CCCn1c2c(c3ccccc3c1=O)C(=O)c1ccccc1-2 | 3.74 µM | 1.12
CN(C)CCNC(=O)c1cccc(C(=O)Nc2ccccc2)c1[N+](=O)[O-] | > 100 µM | 
CC(=O)OC1Oc2ccccc2-c2oc(=O)c(-c3cc4ccc(N(C)C)cc4oc3=O)cc21 (stereo unspecified) | 21 µM | 4.57
CCC1(O)C(=O)OCc2c1cc1n(c2=O)Cc2cc3ccc(C=O)cc3nc2-1 (stereo unspecified) | 50 µM and 52.6 µM | 2.07
CC1(C)C2CC(O)C1(C)CC2=O (stereo unspecified) | > 100 µM | 
COc1ccc2c(c1)C(=O)c1c-2n(CCCn2ccnc2)c(=O)c2ccccc12 | 2.13 µM | 0.101
COc1cc2oc(-c3ccc(O)cc3)cc(=O)c2c(OC)c1OC | > 100 µM | 
O=C(CCl)Nc1ccc(Cl)cc1 | 13.3 µM | 3.45
O=S(=O)(/N=S(/Nc1ccccc1)C(Cl)Cl)c1ccccc1 (stereo unspecified) | > 100 µM | 
Fc1cc(F)c(COc2cc(Cn3cnc4c(Cl)nc(Cl)nc43)ccc2C23CC4CC(CC(C4)C2)C3)cc1F | 34 µM | 18
COc1ccc(N2C(=O)C3c4[nH]c5ccc(C)cc5c4C4CCC(C(C)(C)C)CC4C3C2=O)cc1 (stereo unspecified) | 23.3 µM | 
CC/C=C\C[C@@H]1C/C=C2/C(=O)C=C[C@H]2C/C=C\CCCC(=O)O1 | 2.73 µM | 1.18
NC(=S)N/N=C/c1ccc(OC(=O)COc2ccc(Cl)cc2)cn1 | > 100 µM | 20.8
O=C(N/N=C/c1cccc(O)c1O)c1ccccc1 | > 100 µM | 2.28
O=C1c2ccccc2-c2c1c1ccccc1c(=O)n2Cc1ccccc1 | > 100 µM | 
Nc1ncc(-c2cnn(CCO)c2)c2scc(-c3ccc(NC(=O)Nc4cccc(F)c4)cc3)c12 | 0.762 µM | < 0.0373
COc1cc(C2=NN(C(C)=O)C(c3ccc(OC(C)=O)cc3OC(C)=O)O2)c(OC(C)=O)c2ccccc12 (stereo unspecified) | 23.8 µM | 1.68
CCOC(=O)c1cc(/C(=N\O)c2cc(OC)c(OC)c(OC)c2)n2cc(C)cc(C)c12 | 5.25 µM | 1.72
COC(=O)C(=O)C(C(=O)C(=O)Nc1ccccc1C(N)=O)c1nc2ccc(Cl)cc2[nH]c1=O (stereo unspecified) | > 100 µM | 
COc1cc[nH]c1/C=C1\C(=O)Nc2ccccc21 | > 25 µM | > 25
Cc1nc2ccccc2c(=O)n1NC(=O)c1ccccn1 | > 100 µM | 

What follows are molecules tested on NCI-H460 lung (assay: NCI tumour cell line growth inhibition, 48 h).

Structure (SMILES) | TGI | GI50 [µM]
O=C1NC(=O)c2ccc([N+](=O)[O-])c3cccc1c23 | 29.7 µM | 
C[N+](C)(C)CC1CCCC(C[N+](C)(C)C)C1=O (stereo unspecified) | 39.2 µM | 
CN(C)CCCn1c2c(c3ccccc3c1=O)C(=O)c1ccccc1-2 | 10.5 µM | 0.52
CN(C)CCNC(=O)c1cccc(C(=O)Nc2ccccc2)c1[N+](=O)[O-] | > 100 µM | 
CC(=O)OC1Oc2ccccc2-c2oc(=O)c(-c3cc4ccc(N(C)C)cc4oc3=O)cc21 (stereo unspecified) | 33.1 µM | 11.8
CCC1(O)C(=O)OCc2c1cc1n(c2=O)Cc2cc3ccc(C=O)cc3nc2-1 (stereo unspecified) | 6.59 µM and 26.4 µM | 0.301
CC1(C)C2CC(O)C1(C)CC2=O (stereo unspecified) | > 100 µM | 
COc1ccc2c(c1)C(=O)c1c-2n(CCCn2ccnc2)c(=O)c2ccccc12 | 1.46 µM | 0.128
COc1cc2oc(-c3ccc(O)cc3)cc(=O)c2c(OC)c1OC | > 100 µM | 
O=C(CCl)Nc1ccc(Cl)cc1 | 16.5 µM | 3.86
O=S(=O)(/N=S(/Nc1ccccc1)C(Cl)Cl)c1ccccc1 (stereo unspecified) | > 100 µM | 
Fc1cc(F)c(COc2cc(Cn3cnc4c(Cl)nc(Cl)nc43)ccc2C23CC4CC(CC(C4)C2)C3)cc1F | 37.5 µM | 19.4
COc1ccc(N2C(=O)C3c4[nH]c5ccc(C)cc5c4C4CCC(C(C)(C)C)CC4C3C2=O)cc1 (stereo unspecified) | 49.3 µM | 
CC/C=C\C[C@@H]1C/C=C2/C(=O)C=C[C@H]2C/C=C\CCCC(=O)O1 | 7.45 µM | 2.67
NC(=S)N/N=C/c1ccc(OC(=O)COc2ccc(Cl)cc2)cn1 | 18.9 µM | 3.91
O=C(N/N=C/c1cccc(O)c1O)c1ccccc1 | > 100 µM | 0.878
Nc1ncc(-c2cnn(CCO)c2)c2scc(-c3ccc(NC(=O)Nc4cccc(F)c4)cc3)c12 | 4.21 µM | < 0.0355
COc1cc(C2=NN(C(C)=O)C(c3ccc(OC(C)=O)cc3OC(C)=O)O2)c(OC(C)=O)c2ccccc12 (stereo unspecified) | > 33.4 µM | 1.15
CCOC(=O)c1cc(/C(=N\O)c2cc(OC)c(OC)c(OC)c2)n2cc(C)cc(C)c12 | 7.64 µM | 2.76
COC(=O)C(=O)C(C(=O)C(=O)Nc1ccccc1C(N)=O)c1nc2ccc(Cl)cc2[nH]c1=O (stereo unspecified) | > 100 µM | 
COc1cc[nH]c1/C=C1\C(=O)Nc2ccccc21 | > 25 µM | 8.85
Cc1cn2c(/C=C3/C(=O)N(C)c4ccccc43)c(C)nc2s1 | 29.6 µM | 4.06
Cc1nc2ccccc2c(=O)n1NC(=O)c1ccccn1 | > 100 µM | 

Each molecule was assayed on SK-MEL-5 melanoma (assay: NCI tumour cell line growth inhibition, 48 h).

Structure (SMILES) | TGI | GI50 [µM]
O=C1NC(=O)c2ccc([N+](=O)[O-])c3cccc1c23 | 34.6 µM | 
C[N+](C)(C)CC1CCCC(C[N+](C)(C)C)C1=O (stereo unspecified) | 10.5 µM | 
CN(C)CCNC(=O)c1cccc(C(=O)Nc2ccccc2)c1[N+](=O)[O-] | > 100 µM | 
CC(=O)OC1Oc2ccccc2-c2oc(=O)c(-c3cc4ccc(N(C)C)cc4oc3=O)cc21 (stereo unspecified) | 15.4 µM | 3.46
CCC1(O)C(=O)OCc2c1cc1n(c2=O)Cc2cc3ccc(C=O)cc3nc2-1 (stereo unspecified) | 6.95 µM and 6.23 µM | 1.57
CC1(C)C2CC(O)C1(C)CC2=O (stereo unspecified) | > 100 µM | 
COc1ccc2c(c1)C(=O)c1c-2n(CCCn2ccnc2)c(=O)c2ccccc12 | 0.344 µM | 0.154
COc1cc2oc(-c3ccc(O)cc3)cc(=O)c2c(OC)c1OC | > 100 µM | 
O=C(CCl)Nc1ccc(Cl)cc1 | 3.16 µM | 1.71
Fc1cc(F)c(COc2cc(Cn3cnc4c(Cl)nc(Cl)nc43)ccc2C23CC4CC(CC(C4)C2)C3)cc1F | 3.53 µM | 1.68
COc1ccc(N2C(=O)C3c4[nH]c5ccc(C)cc5c4C4CCC(C(C)(C)C)CC4C3C2=O)cc1 (stereo unspecified) | > 100 µM | 
CC/C=C\C[C@@H]1C/C=C2/C(=O)C=C[C@H]2C/C=C\CCCC(=O)O1 | 1.43 µM | 0.348
NC(=S)N/N=C/c1ccc(OC(=O)COc2ccc(Cl)cc2)cn1 | 23.6 µM | 3.24
O=C(N/N=C/c1cccc(O)c1O)c1ccccc1 | > 22.7 µM | 0.626
O=C1c2ccccc2-c2c1c1ccccc1c(=O)n2Cc1ccccc1 | > 100 µM | 
Nc1ncc(-c2cnn(CCO)c2)c2scc(-c3ccc(NC(=O)Nc4cccc(F)c4)cc3)c12 | 2.35 µM | 1.03
COc1cc(C2=NN(C(C)=O)C(c3ccc(OC(C)=O)cc3OC(C)=O)O2)c(OC(C)=O)c2ccccc12 (stereo unspecified) | 7.54 µM | 0.984
CCOC(=O)c1cc(/C(=N\O)c2cc(OC)c(OC)c(OC)c2)n2cc(C)cc(C)c12 | 5.79 µM | 2.19
COC(=O)C(=O)C(C(=O)C(=O)Nc1ccccc1C(N)=O)c1nc2ccc(Cl)cc2[nH]c1=O (stereo unspecified) | > 100 µM | 
COc1cc[nH]c1/C=C1\C(=O)Nc2ccccc21 | > 25 µM | 10.9
Cc1cn2c(/C=C3/C(=O)N(C)c4ccccc43)c(C)nc2s1 | 25.5 µM | 4.71
Cc1nc2ccccc2c(=O)n1NC(=O)c1ccccn1 | > 100 µM | 

The molecules below were run on NCI-H23 lung (assay: NCI tumour cell line growth inhibition, 48 h).

Structure (SMILES) | TGI | GI50 [µM]
O=C1NC(=O)c2ccc([N+](=O)[O-])c3cccc1c23 | 33.7 µM | 
C[N+](C)(C)CC1CCCC(C[N+](C)(C)C)C1=O (stereo unspecified) | 5.84 µM | 
CN(C)CCCn1c2c(c3ccccc3c1=O)C(=O)c1ccccc1-2 | 8.39 µM | 1.75
CN(C)CCNC(=O)c1cccc(C(=O)Nc2ccccc2)c1[N+](=O)[O-] | > 100 µM | 
CC(=O)OC1Oc2ccccc2-c2oc(=O)c(-c3cc4ccc(N(C)C)cc4oc3=O)cc21 (stereo unspecified) | 23.7 µM | 10.6
CCC1(O)C(=O)OCc2c1cc1n(c2=O)Cc2cc3ccc(C=O)cc3nc2-1 (stereo unspecified) | 2.71 µM and 16.7 µM | 0.816
CC1(C)C2CC(O)C1(C)CC2=O (stereo unspecified) | > 100 µM | 
COc1ccc2c(c1)C(=O)c1c-2n(CCCn2ccnc2)c(=O)c2ccccc12 | 7.86 µM | 0.284
COc1cc2oc(-c3ccc(O)cc3)cc(=O)c2c(OC)c1OC | > 100 µM | 
O=C(CCl)Nc1ccc(Cl)cc1 | 14.3 µM | 3.29
O=S(=O)(/N=S(/Nc1ccccc1)C(Cl)Cl)c1ccccc1 (stereo unspecified) | > 100 µM | 
COc1ccc(N2C(=O)C3c4[nH]c5ccc(C)cc5c4C4CCC(C(C)(C)C)CC4C3C2=O)cc1 (stereo unspecified) | 86.5 µM | 
CC/C=C\C[C@@H]1C/C=C2/C(=O)C=C[C@H]2C/C=C\CCCC(=O)O1 | 3.2 µM | 0.993
NC(=S)N/N=C/c1ccc(OC(=O)COc2ccc(Cl)cc2)cn1 | > 100 µM | 3.67
O=C(N/N=C/c1cccc(O)c1O)c1ccccc1 | > 100 µM | 0.992
O=C1c2ccccc2-c2c1c1ccccc1c(=O)n2Cc1ccccc1 | > 100 µM | 
Nc1ncc(-c2cnn(CCO)c2)c2scc(-c3ccc(NC(=O)Nc4cccc(F)c4)cc3)c12 | 2.3 µM | 0.211
COc1cc(C2=NN(C(C)=O)C(c3ccc(OC(C)=O)cc3OC(C)=O)O2)c(OC(C)=O)c2ccccc12 (stereo unspecified) | > 78.9 µM | 2.55
CCOC(=O)c1cc(/C(=N\O)c2cc(OC)c(OC)c(OC)c2)n2cc(C)cc(C)c12 | > 100 µM | 2.81
COC(=O)C(=O)C(C(=O)C(=O)Nc1ccccc1C(N)=O)c1nc2ccc(Cl)cc2[nH]c1=O (stereo unspecified) | > 100 µM | 
COc1cc[nH]c1/C=C1\C(=O)Nc2ccccc21 | > 25 µM | 7.7
Cc1cn2c(/C=C3/C(=O)N(C)c4ccccc43)c(C)nc2s1 | > 100 µM | 16.2
Cc1nc2ccccc2c(=O)n1NC(=O)c1ccccn1 | > 100 µM | 

The molecules below were run on BT-549 breast (assay: NCI tumour cell line growth inhibition, 48 h).

Structure (SMILES) | TGI | GI50 [µM]
O=C1NC(=O)c2ccc([N+](=O)[O-])c3cccc1c23 | 33.7 µM | 
C[N+](C)(C)CC1CCCC(C[N+](C)(C)C)C1=O (stereo unspecified) | 3.09 µM | 
CN(C)CCCn1c2c(c3ccccc3c1=O)C(=O)c1ccccc1-2 | 19.9 µM | 5.53
CN(C)CCNC(=O)c1cccc(C(=O)Nc2ccccc2)c1[N+](=O)[O-] | > 100 µM | 
CC(=O)OC1Oc2ccccc2-c2oc(=O)c(-c3cc4ccc(N(C)C)cc4oc3=O)cc21 (stereo unspecified) | 20.7 µM | 3.67
CCC1(O)C(=O)OCc2c1cc1n(c2=O)Cc2cc3ccc(C=O)cc3nc2-1 (stereo unspecified) | 29.8 µM and 59.6 µM | 4.56
CC1(C)C2CC(O)C1(C)CC2=O (stereo unspecified) | > 100 µM | 
COc1ccc2c(c1)C(=O)c1c-2n(CCCn2ccnc2)c(=O)c2ccccc12 | 3.87 µM | 0.478
COc1cc2oc(-c3ccc(O)cc3)cc(=O)c2c(OC)c1OC | > 100 µM | 
O=C(CCl)Nc1ccc(Cl)cc1 | 9.92 µM | 2.78
O=S(=O)(/N=S(/Nc1ccccc1)C(Cl)Cl)c1ccccc1 (stereo unspecified) | > 100 µM | 
Fc1cc(F)c(COc2cc(Cn3cnc4c(Cl)nc(Cl)nc43)ccc2C23CC4CC(CC(C4)C2)C3)cc1F | 24.5 µM | 11
COc1ccc(N2C(=O)C3c4[nH]c5ccc(C)cc5c4C4CCC(C(C)(C)C)CC4C3C2=O)cc1 (stereo unspecified) | 67.9 µM | 
CC/C=C\C[C@@H]1C/C=C2/C(=O)C=C[C@H]2C/C=C\CCCC(=O)O1 | 2.23 µM | 0.89
NC(=S)N/N=C/c1ccc(OC(=O)COc2ccc(Cl)cc2)cn1 | > 100 µM | 4.74
O=C(N/N=C/c1cccc(O)c1O)c1ccccc1 | > 73 µM | 1.84
O=C1c2ccccc2-c2c1c1ccccc1c(=O)n2Cc1ccccc1 | > 100 µM | 
Nc1ncc(-c2cnn(CCO)c2)c2scc(-c3ccc(NC(=O)Nc4cccc(F)c4)cc3)c12 | 3.76 µM | 0.618
COc1cc(C2=NN(C(C)=O)C(c3ccc(OC(C)=O)cc3OC(C)=O)O2)c(OC(C)=O)c2ccccc12 (stereo unspecified) | 47.6 µM | 1.87
CCOC(=O)c1cc(/C(=N\O)c2cc(OC)c(OC)c(OC)c2)n2cc(C)cc(C)c12 | > 100 µM | 4.39
